Test results published in patent US20260200921A1, “SUBSTITUTED AMINOPYRIDINE COMPOUNDS AS AKT INHIBITORS” (Atavistik Bio, Inc., priority 2023, published 2026).

Columns and labels:
[1] = target: T1, AKT1 E17K (Homo sapiens, UniProt P31749, E17K); experiment: AKT1 E17K kinase assay (TR-FRET, Lance); format: biochemical; conditions: full-length human recombinant AKT1 E17K activated by PDPK1; Ulight-CREBtide substrate; either 50 μM ATP or 2 mM ATP
T1 construct: Purified human recombinant kinase full-length AKT1 E17K was expressed in insect cells; made in house; host or cells: insect cells
Method: AKT1 E17K kinase assay: Inhibitory effects of compounds on AKT1 E17K were undertaken in a 10-pt dose response kinase activity assay measuring phospho-peptide product formation based on TR-FRET signal as described in the following paragraph.
(§1) Purified human recombinant kinase full-length AKT1 E17K was expressed in insect cells and activated in vitro by PDPK1. Ulight™-CREBtide (PerkinElmer, catalog number TRF0107) was used as the peptide substrate. The reaction buffer consisted of 50 mM HEPES pH 7.5, 10 mM MgCl2, 0.01% Triton X-100, 0.01% BSA, 2 mM DTT, 0.6 nM AKT1 E17K, 50 nM Ulight™-CREBtide and either 50 μM ATP or 2 mM ATP. The compound solution was prepared as 10 mM DMSO stock. For the assay, a 1:3 serial dilution 10-pt dose response of test compounds, in duplicate, for each concentration were dispensed into a 384-well plate (Corning, catalog number 4513). Final DMSO concentration in the assay was 1%. The enzyme mixture (5 μL, 1.2 nM) were added and the mixture was incubated for 15 min at RT prior to the start of the kinase reaction by the addition of 5 μL substrate mixture (100 nM Ulight™-CREBtide). The reaction was stopped after 60 min of incubation at RT by the addition of 10 μL of Detection Mix (PerkinElmer, #CR97-100) consisting of Europium-anti-phospho-CREB (Ser133) (Perkin Elmer, catalog numberTRF0200). Incubation with the detection mix for a further 60 min allowed binding of antibody to the phospho-Ulight™ CREBtide. The fluorescence emissions at 620 nm and 665 nm after excitation at 350 nm was measured using Envision reader. The ratio of the emissions at 665 nm and at 620 nm provided the measure for the amount of phosphorylated CREBtide product of AKT1 E17K kinase activity. To determine the IC50 values, the data was normalized (enzyme reaction without inhibitor=0% inhibition, all other assay components but no enzyme=100% inhibition) and IC50 values were calculated by a 4-parameter fit using an in-house developed protocol.

[2] = target: T2, wildtype AKT1 (Homo sapiens, UniProt P31749); experiment: AKT1 kinase assay, wildtype (TR-FRET, Lance); format: biochemical; conditions: full-length human recombinant wildtype AKT1 activated by PDPK1; Ulight-CREBtide substrate; either 50 μM ATP or 2 mM ATP
T2 construct: Purified human recombinant kinase full-length wildtype AKT1 was expressed in insect cells; made in house; host or cells: insect cells
Method: AKT1 kinase assay: Inhibitory effects of compounds on wildtype AKT1 were undertaken in a 10-pt dose response kinase activity assay measuring phospho-peptide product formation based on TR-FRET signal as described in the following paragraph.
as §1, with “full-length wildtype” for “full-length”, “AKT1” for “AKT1 E17K”, “nM AKT1,” for “nM AKT1 E17K,”, “Mix (PerkinElmer.” for “Mix (PerkinElmer,”

T1 sequence (P31749 whole entry E17K): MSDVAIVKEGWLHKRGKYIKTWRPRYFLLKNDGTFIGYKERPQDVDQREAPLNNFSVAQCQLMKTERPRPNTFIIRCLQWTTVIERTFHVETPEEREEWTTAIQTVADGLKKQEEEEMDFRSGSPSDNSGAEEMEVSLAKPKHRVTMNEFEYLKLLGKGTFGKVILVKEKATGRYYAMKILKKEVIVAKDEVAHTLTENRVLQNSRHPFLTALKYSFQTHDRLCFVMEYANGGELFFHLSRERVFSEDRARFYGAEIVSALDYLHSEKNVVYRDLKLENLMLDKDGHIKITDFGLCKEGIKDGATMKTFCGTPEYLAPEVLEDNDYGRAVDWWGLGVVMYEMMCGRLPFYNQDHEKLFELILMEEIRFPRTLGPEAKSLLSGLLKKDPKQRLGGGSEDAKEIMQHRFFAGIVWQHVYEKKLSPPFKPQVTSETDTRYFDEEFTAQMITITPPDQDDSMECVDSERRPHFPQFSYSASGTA
T2 sequence (P31749 whole entry): as the sequence (P31749 whole entry E17K) above, with K17E counted along it

Compound | IC50 [1] | IC50 [2]
Cc1cc(O)n(-c2cccc(C(=O)NCc3ccc(-n4c(-c5cccnc5N)nc5ccc(-c6ccccc6)nc54)cc3)c2)n1 [Compound I-3, N-(4-(2-(2-aminopyridin-3-yl)-5-phenyl-3H-imidazo[4,5-b]pyridin-3-yl)benzyl)-3-(5-hydroxy-3-methyl-1H-pyrazol-1-yl)benzamide] | ≥ 0.5 µM | < 0.5 µM
Cc1cc(O)n(-c2ccc(C(=O)NCc3ccc(-n4c(-c5cccnc5N)nc5ccc(-c6ccccc6)nc54)cc3)c(F)c2)n1 [Compound I-4, N-[[4-[2-(2-amino-3-pyridyl)-5-phenyl-imidazo[4,5-b]pyridin-3-yl]phenyl]methyl]-2-fluoro-4-(5-hydroxy-3-methyl-pyrazol-1-yl)benzamide] | 0.05 to 0.2 µM | < 0.5 µM
Cc1cc(O)n(-c2ccc(C(=O)NCc3ccc(-n4c(-c5cccnc5N)nc5ccc(-c6ccccc6)nc54)cc3)cc2F)n1 [Compound I-5, N-[[4-[2-(2-amino-3-pyridyl)-5-phenyl-imidazo[4,5-b]pyridin-3-yl]phenyl]methyl]-3-fluoro-4-(5-hydroxy-3-methyl-pyrazol-1-yl)benzamide] | 0.05 to 0.2 µM | < 0.5 µM
Nc1ncccc1-c1nc2ccc(-c3ccccc3)nc2n1-c1ccc(CNC(=O)c2ccc(-n3nc(C(F)(F)F)cc3O)cc2)cc1 [Compound I-6, N-(4-(2-(2-aminopyridin-3-yl)-5-phenyl-3H-imidazo[4,5-b]pyridin-3-yl)benzyl)-4-(5-hydroxy-3-(trifluoromethyl)-1H-pyrazol-1-yl)benzamide] | 0.2 to 0.5 µM | < 0.5 µM
Nc1ncccc1-c1nc2ccc(-c3ccccc3)nc2n1-c1ccc(CNC(=O)c2cccc(-n3nc(C(F)(F)F)cc3O)c2)cc1 [Compound I-7, N-(4-(2-(2-aminopyridin-3-yl)-5-phenyl-3H-imidazo[4,5-b]pyridin-3-yl)benzyl)-3-(5-hydroxy-3-(trifluoromethyl)-1H-pyrazol-1-yl)benzamide] | ≥ 0.5 µM | < 0.5 µM
Nc1ncccc1-c1nc2ccc(-c3ccccc3)nc2n1-c1ccc(CNC(=O)c2ccc(-n3nc(-c4ccccc4)cc3O)cc2)cc1 [Compound I-8, N-(4-(2-(2-aminopyridin-3-yl)-5-phenyl-3H-imidazo[4,5-b]pyridin-3-yl)benzyl)-4-(5-hydroxy-3-phenyl-1H-pyrazol-1-yl)benzamide] | ≥ 0.5 µM | < 0.5 µM

Next, values leading:

IC50 [1] | IC50 [2] | Compound
0.05 to 0.2 µM | < 0.5 µM | Cc1cc(O)n(-c2ccc(C(=O)NCc3ccc(-n4c(-c5cccnc5N)nc5ccc(-c6ccccc6)nc54)cc3)cc2)n1 [Compound I-1, N-(4-(2-(2-aminopyridin-3-yl)-5-phenyl-3H-imidazo[4,5-b]pyridin-3-yl)benzyl)-4-(3-methyl-5-oxo-4,5-dihydro-1H-pyrazol-1-yl)benzamide]
0.2 to 0.5 µM | < 0.5 µM | COc1cc(C)nn1-c1ccc(C(=O)NCc2ccc(-n3c(-c4cccnc4N)nc4ccc(-c5ccccc5)nc43)cc2)cc1 [Compound I-2, N-(4-(2-(2-aminopyridin-3-yl)-5-phenyl-3H-imidazo[4,5-b]pyridin-3-yl)benzyl)-4-(5-methoxy-3-methyl-1H-pyrazol-1-yl)benzamide]
0.05 to 0.2 µM | < 0.5 µM | COC(=O)Cc1cc(O)n(-c2ccc(C(=O)NCc3ccc(-n4c(-c5cccnc5N)nc5ccc(-c6ccccc6)nc54)cc3)cc2)n1 [Compound I-9, Methyl 2-(1-(4-((4-(2-(2-aminopyridin-3-yl)-5-phenyl-3H-imidazo[4,5-b]pyridin-3-yl)benzyl)carbamoyl)phenyl)-5-hydroxy-1H-pyrazol-3-yl)acetate]
< 0.05 µM | < 0.5 µM | Nc1ncccc1-c1nc2ccc(-c3ccccc3)nc2n1-c1ccc(CNC(=O)c2ccc(-n3nc(CC(=O)O)cc3O)cc2)cc1 [Compound I-10, 2-(1-(4-((4-(2-(2-aminopyridin-3-yl)-5-phenyl-3H-imidazo[4,5-b]pyridin-3-yl)benzyl)carbamoyl)phenyl)-5-hydroxy-1H-pyrazol-3-yl)acetic acid]
